Measurements as given in patent publication US20260248833A1, “PYRIMIDINE NUCLEOSIDE TREATMENTS” (The Children`s Medical Center Corporation, priority 2022, published 2026).

Experiments:
Type in all cases: biochemical
telomerase = target: T1, telomerase (Homo sapiens, UniProt O14746); assay: Modified TRAP assay with exogenous dTTP on super-telomerase extracts; settings: increasing levels of exogenous dTTP
T1 construct: expressed in transfected cells; host or cells: TERC-null 293T cells transfected with TERT and TERC expression vectors
Procedure: (§1) TRAP assay: cell extracts for TRAP assays were made using TRAPeze™1×CHAPS Lysis Buffer (Roche) supplemented with RNASEin (Promega). Standard TRAP reactions (in FIG. 25a) were performed as described, with cell input normalized across samples using the Bio-Rad DC assay. TRAP assays were modified to enable unique dNTP concentrations in telomerase reactions from PCR reactions (FIG. 25) as follows: reactions were assembled with 1×TRAP buffer (20 mM Tris-HCl, pH 8.3; 1.5 mM MgCl2; 63 mM KCl; 0.05% Tween 20; 1 mM EGTA), TS, ACX, TNST, and NT primers as described (see Primers/Oligos below), dNTPs were added at physiologic concentrations (dATP 24 μM, dGTP 5.2 μM, dCTP 29 μM, dTTP 37 μM) unless otherwise mentioned in the figure legend, followed by telomerase extracts. TRAP assays were modified to detect GGAAAG repeats using the following primers: TS GGAAAG, TNST GGAAAG, ACX GGAAAG, and NT (see Primers/Oligos below). After addition of telomerase extracts, reactions were incubated for 30 minutes at 30° C. followed by heat inactivation at 95° C. for 5 minutes. […] Images were quantified for a given lane using ImageJ by measuring the signal of the telomerase repeat sized products divided by the signal of the internal control band for the lane, normalized to the same ratio for the untreated sample(s) in a given experiment. […]

T-free telomerase = target: T2, T-free telomerase (Homo sapiens, UniProt O14746); assay: Modified GGAAAG TRAP assay on T-free super-telomerase extracts; settings: increasing dTTP levels
T2 construct: expressed in transfected cells; host or cells: TERC-null 293T cells transfected with TERT and T-free TERC vectors
Procedure: as §1

[1] = target: T3, immunopurified T-free telomerase (Homo sapiens, UniProt O14746); assay: Direct telomerase assay on immunopurified T-free telomerase
T3 construct: made in house; host or cells: TERC-null 293T cells, transient transfection; anti-HA magnetic bead immunopurification, enzyme used on beads
Procedure: Telomerase immunopurification: 293T TERC-null cells were transfected as described above with 3×HA-TERT and TERC/EGFP in 10-cm diameter dishes with reagents scaled up proportional to cell growth area. Two days after transfection, cells were harvested, washed once in PBS, and lysed in TRAPezeTM1×CHAPS Lysis Buffer (Roche) supplemented with RNasin Plus (Promega) and HALT protease inhibitor cocktail (Thermo Fisher), followed by incubation on ice for 30 minutes and precipitation of insoluble material by centrifugation. Immunoprecipitation was performed as described previously with minor modifications. Briefly, 75 μl of anti-HA magnetic beads (Sigma-Aldrich, SAE0197, mouse IgG1 monoclonal antibody, Clone HA-7, 50% beads by volume) were added to clarified lysates followed by 2 hours incubation at 4° C. while rotating. […] Images were quantified using ImageJ as follows. For total telomerase activity measurement (FIG. 25f), telomerase product signal in a lane was quantified and normalized to the loading control band signal within the same lane. […] For the analysis of telomerase repeat intensity (FIG. 25x), the signal of each repeat (defined as the three consecutive intense bands in the laddering pattern, as indicated in FIG. 25d), was quantified and first normalized to the loading control band signal for that lane. […]

T3 sequence (O14746 whole entry): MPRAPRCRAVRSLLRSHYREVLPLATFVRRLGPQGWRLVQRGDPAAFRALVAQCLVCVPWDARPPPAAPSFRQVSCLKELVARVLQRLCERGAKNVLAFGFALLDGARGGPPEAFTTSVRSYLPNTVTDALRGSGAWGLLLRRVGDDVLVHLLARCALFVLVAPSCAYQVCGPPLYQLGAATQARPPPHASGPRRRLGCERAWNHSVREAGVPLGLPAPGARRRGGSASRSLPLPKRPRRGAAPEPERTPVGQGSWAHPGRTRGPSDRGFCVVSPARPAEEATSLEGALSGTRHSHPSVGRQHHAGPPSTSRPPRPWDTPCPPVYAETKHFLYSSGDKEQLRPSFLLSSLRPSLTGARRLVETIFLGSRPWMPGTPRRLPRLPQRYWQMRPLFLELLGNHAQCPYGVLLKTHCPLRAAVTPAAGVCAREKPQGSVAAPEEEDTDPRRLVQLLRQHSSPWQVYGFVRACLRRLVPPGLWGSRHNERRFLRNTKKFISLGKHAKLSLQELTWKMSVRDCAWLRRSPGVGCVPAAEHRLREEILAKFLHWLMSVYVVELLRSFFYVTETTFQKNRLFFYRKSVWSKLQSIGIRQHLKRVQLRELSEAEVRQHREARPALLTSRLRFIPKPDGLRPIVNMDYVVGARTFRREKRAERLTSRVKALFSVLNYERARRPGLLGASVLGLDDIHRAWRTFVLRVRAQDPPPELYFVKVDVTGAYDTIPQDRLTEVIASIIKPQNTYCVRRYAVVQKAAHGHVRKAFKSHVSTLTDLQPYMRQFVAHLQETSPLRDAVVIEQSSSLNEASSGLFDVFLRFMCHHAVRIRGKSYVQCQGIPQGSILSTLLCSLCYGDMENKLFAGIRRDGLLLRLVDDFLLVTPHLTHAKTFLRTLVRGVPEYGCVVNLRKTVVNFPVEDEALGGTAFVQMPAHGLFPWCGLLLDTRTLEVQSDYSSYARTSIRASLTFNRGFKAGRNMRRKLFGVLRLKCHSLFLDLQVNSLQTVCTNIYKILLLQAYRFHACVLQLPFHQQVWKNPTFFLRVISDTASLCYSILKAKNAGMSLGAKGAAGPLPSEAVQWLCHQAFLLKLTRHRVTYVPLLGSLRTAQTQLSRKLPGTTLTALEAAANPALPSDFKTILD
T3 sequence (O60832 whole entry partner): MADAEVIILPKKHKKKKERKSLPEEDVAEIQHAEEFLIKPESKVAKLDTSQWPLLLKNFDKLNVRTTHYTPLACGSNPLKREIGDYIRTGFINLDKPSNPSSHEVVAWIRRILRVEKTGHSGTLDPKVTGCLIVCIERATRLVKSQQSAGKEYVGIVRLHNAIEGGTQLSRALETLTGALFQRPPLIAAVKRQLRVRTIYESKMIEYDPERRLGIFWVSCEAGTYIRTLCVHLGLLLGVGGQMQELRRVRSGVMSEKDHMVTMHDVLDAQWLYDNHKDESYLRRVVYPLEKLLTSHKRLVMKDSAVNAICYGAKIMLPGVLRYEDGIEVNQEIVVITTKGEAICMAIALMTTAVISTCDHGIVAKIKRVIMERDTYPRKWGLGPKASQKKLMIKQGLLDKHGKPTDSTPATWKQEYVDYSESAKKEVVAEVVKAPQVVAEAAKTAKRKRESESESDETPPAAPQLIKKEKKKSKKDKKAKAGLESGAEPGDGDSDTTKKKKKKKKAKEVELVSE
T3 sequence (Q9NPE3 whole entry partner): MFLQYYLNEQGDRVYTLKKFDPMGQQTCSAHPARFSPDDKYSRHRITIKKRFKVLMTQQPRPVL
T3 sequence (Q9NX24 whole entry partner): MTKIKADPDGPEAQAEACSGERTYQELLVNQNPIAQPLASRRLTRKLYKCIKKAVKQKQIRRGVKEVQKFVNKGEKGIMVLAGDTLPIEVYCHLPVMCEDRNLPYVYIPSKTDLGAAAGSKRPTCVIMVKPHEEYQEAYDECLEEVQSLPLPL
T3 sequence (Q9NY12 whole entry partner): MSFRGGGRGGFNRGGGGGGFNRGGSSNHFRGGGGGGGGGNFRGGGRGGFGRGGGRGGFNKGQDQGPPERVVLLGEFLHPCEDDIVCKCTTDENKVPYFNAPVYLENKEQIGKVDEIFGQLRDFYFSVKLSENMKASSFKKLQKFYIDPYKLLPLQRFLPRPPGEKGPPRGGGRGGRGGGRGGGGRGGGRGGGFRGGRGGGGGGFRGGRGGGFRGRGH
T2 sequence (O14746 whole entry): as the sequence (O14746 whole entry) above
T2 sequence (O60832 whole entry partner): as the sequence (O60832 whole entry partner) above
T2 sequence (Q9NPE3 whole entry partner): as the sequence (Q9NPE3 whole entry partner) above
T2 sequence (Q9NX24 whole entry partner): as the sequence (Q9NX24 whole entry partner) above
T2 sequence (Q9NY12 whole entry partner): as the sequence (Q9NY12 whole entry partner) above
T1 sequence (O14746 whole entry): as the sequence (O14746 whole entry) above
T1 sequence (O60832 whole entry partner): as the sequence (O60832 whole entry partner) above
T1 sequence (Q9NPE3 whole entry partner): as the sequence (Q9NPE3 whole entry partner) above
T1 sequence (Q9NX24 whole entry partner): as the sequence (Q9NX24 whole entry partner) above
T1 sequence (Q9NY12 whole entry partner): as the sequence (Q9NY12 whole entry partner) above

## Cc1cn([C@H]2C[C@H](O)[C@@H](COP(=O)(O)OP(=O)(O)OP(=O)(O)O)O2)c(=O)[nH]c1=O [dTTP, dT triphosphate]
telomerase
  telomerase activity: enhanced telomerase activity
T-free telomerase
  T-free telomerase activity: increased T-free telomerase activity with increasing dTTP levels
[1]; at a concentration of 25 μM dTTP
  T-free telomerase activity, levels higher than without dTTP: approximately 50%
[1]; incorporation of α-32P-dATP, dTTP added
  T-free telomerase activity: enhanced T-free telomerase activity in a dose-dependent manner
